We go through 2 compounds from paper PMC12858405, “Ideal efficacy photoswitching for chromocontrol of TRPC4/5 channel functions in live tissues” (Nature Chemical Biology, 2026).

In assay [1] the target is T1, heteromeric TRPC5:TRPC1 (Homo sapiens, UniProt Q9UL62).
T1 construct: expressed in transfected cells; host or cells: HEK293, transiently transfected
The arrangement: method as in earlier work. Particulars: supplement cites it as ref 8; cited from earlier work.

The target of assay [2] is T2, EA-activated TRPC5 (Mus musculus, UniProt Q9QX29).
T2 construct: expressed in transfected cells; host or cells: HEK293-mTRPC5-YFP
T2 sequence (Q9QX29 1-975): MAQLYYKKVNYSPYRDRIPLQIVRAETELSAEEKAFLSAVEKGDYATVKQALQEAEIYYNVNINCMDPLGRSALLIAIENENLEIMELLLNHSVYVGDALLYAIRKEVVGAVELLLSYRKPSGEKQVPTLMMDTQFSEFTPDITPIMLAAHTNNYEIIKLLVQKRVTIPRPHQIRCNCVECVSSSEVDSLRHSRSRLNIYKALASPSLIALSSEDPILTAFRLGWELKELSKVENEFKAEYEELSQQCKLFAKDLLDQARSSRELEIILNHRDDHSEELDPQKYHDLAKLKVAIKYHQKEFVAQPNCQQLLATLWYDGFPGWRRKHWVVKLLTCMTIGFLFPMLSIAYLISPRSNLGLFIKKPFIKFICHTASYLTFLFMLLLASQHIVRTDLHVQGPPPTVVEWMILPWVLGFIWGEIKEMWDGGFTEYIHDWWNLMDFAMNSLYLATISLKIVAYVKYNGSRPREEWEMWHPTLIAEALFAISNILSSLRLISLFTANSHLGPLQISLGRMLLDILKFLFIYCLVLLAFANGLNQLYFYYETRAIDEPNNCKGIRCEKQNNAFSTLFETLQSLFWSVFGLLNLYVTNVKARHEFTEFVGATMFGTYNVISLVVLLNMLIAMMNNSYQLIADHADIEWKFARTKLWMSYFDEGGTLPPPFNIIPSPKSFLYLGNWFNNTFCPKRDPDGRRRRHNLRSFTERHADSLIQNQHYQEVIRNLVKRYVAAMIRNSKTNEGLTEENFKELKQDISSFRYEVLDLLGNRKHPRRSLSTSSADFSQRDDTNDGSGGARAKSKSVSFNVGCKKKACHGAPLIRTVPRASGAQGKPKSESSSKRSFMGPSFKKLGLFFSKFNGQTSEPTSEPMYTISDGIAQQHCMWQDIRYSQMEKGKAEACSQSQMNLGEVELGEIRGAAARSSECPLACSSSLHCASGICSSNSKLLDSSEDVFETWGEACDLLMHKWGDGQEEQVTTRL
As to the kind of experiment: FLIPR Ca2+ assay, E isomers silencing EA-activated TRPC5 (HEK293-mTRPC5-YFP). It counts as cell-based. From the text: Müller, Niemeyer, et al., Schaefer & Thorn-Seshold 2025: Ideal Efficacy Photoswitching of TRPC4/5 in Tissue but it can justify why the affinity of the E/Z-isomers may be similar.
(2) The EC50 values are reported as the midpoints of unconstrained sigmoidal fits to the FLIPR data (Fig 1l and Supplementary Fig. 2): with different levels of channel activation / blocking and very different Hill slopes across different compounds, isomers, and the two channels. This argues that the midpoint values only capture one of the several important factors describing the […]
We believe that it is possible to derive indicative relative values for binding affinity comparing the E and Z isomers of the same compound using only the combination of FLIPR and ephys data as reported in this paper; this analysis is being developed in a separate paper (see also below).
Supplementary Table 1. Potencies on TRPC4/5 depicted as either simple agonistic potency (blue) or else inhibitory […]
. Z*-values refer to mostly-Z-isomer reached at PSS at 365 nm, E*-values refer to experiments that initially applied 100% E-isomer (thermally relaxed), though in both cases the Ca2+ imaging in FLIPR with Fluo4-AM uses 470 nm excitation, which may over time promote photoswitching towards a PSS that is intermediate between those of pure-365 nm and all-E; this is controlled for in the more reliable ephys measurements). (Table indices: a, data from ref7; b, data from ref2; c, data from ref3; d, data from ref8.) EC50 [nM] (for simple agonism or EA-competitive inhibition)
E-AzPico 90 (vs 30 nM EA) 67 (vs 30 nM EA) […]
orange: inhibitory effect ag.: agonistic effect
1.1.1 From always-active antagonists and agonists towards efficacy photoswitches […]
photoisomerising an azobenzene that is merged in at the C’4 position yielding the compounds […]
inhibitory effect for the E-isomers (Supplementary Table 1). Essentially, the effects of Pico145 and AM237 are latent within a single (two-state reversibly photoswitchable) molecule. This combination is what we call an efficacy switch (also see main text Fig. 1e-j).
1.1.2 Mechanistic test for efficacy photoswitching […]
deliver (Fig. 1-2) is a powerful support for an efficacy switch interpretation. To indirectly support this further, we also measured the effects of E-AzPico and E-AzHC against EA-activated TRPC4/5.
Both E-isomers bind to TRPC4/5 and inhibit EA-evoked currents with nanomolar potencies (Supplementary Fig. 2, Supplementary Table 2). This supports the hypothesis that E- […]
to be an EA-competitive binder5,9,10), so their efficacy as single agent photoswitches results from E/Z-competitive binding that is determined by their PSS. […]
Supplementary Table 2. […] (a Inhibitory effect measured against 30 nM EA; b Inhibitory effect measured against 50 nM EA). […]

T1 sequence (Q9UL62 whole entry): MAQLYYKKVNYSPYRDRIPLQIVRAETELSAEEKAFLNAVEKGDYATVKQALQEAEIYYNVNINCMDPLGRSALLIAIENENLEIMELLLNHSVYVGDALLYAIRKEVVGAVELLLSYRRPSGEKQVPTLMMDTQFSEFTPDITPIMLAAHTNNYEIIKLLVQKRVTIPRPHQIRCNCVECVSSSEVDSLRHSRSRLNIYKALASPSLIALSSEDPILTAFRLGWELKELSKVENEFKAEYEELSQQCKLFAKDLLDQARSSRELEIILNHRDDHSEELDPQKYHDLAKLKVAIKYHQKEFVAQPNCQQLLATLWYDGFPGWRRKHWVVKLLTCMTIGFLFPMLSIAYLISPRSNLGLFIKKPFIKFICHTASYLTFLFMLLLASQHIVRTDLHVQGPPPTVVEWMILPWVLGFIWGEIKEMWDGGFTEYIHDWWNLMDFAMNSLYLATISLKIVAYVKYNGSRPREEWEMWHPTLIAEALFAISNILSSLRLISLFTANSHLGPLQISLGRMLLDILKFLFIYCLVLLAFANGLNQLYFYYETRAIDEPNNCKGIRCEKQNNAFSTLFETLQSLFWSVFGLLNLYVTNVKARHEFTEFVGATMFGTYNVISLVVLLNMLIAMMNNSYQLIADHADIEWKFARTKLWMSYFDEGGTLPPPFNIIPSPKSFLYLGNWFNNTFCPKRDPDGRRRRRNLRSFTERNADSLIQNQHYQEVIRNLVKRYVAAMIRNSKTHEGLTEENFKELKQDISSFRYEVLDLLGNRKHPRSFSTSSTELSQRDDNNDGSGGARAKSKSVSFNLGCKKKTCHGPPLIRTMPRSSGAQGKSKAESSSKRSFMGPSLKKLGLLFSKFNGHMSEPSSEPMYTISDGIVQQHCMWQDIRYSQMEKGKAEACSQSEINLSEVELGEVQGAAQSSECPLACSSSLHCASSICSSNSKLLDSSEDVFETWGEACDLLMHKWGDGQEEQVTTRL
T1 sequence (P48995 whole entry partner): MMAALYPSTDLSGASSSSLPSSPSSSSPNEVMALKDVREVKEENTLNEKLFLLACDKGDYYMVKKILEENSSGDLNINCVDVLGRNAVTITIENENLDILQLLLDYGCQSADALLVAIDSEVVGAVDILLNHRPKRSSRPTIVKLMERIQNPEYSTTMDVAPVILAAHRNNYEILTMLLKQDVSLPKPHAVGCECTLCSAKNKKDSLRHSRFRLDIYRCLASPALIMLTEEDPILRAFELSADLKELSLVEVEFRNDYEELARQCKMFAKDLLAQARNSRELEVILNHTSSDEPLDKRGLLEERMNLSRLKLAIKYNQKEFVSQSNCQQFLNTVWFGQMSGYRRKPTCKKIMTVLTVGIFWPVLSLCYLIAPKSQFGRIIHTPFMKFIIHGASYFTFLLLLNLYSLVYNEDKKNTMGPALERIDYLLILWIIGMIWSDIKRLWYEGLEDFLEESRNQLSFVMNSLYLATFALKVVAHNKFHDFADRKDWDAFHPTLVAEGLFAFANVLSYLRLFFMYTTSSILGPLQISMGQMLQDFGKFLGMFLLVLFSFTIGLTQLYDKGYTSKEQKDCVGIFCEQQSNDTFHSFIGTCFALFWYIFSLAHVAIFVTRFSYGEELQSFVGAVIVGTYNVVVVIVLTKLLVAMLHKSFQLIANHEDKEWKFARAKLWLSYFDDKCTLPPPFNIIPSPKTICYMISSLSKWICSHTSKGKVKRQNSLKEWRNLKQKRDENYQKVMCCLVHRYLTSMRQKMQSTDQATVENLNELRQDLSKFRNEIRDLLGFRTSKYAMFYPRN

With `Cn1c(=O)n(CCCO)c(=O)c2c1nc(Oc1ccc(Cl)c(OC(F)(F)F)c1)n2Cc1ccc(Cl)cc1` [AM237, reference compound], in assay [1], the “Activation of heteromeric TRPC1:TRPC5” value is “does not activate”. For the compound `Cn1c(=O)n(CCCO)c(=O)c2c1nc(Oc1ccc(/N=N/c3ccccc3)c(OC(F)(F)F)c1)n2Cc1ccc(Cl)cc1` [E-AzPico], the half-inhibitory concentration (IC50) came out at 0.067 µM in assay [2] (Inhibitory IC50 (versus 30 nM EA) TRPC5, E isomer, thermally relaxed, 30 nM EA) and 0.069 µM in assay [2] (Inhibitory IC50 (versus 50 nM EA) TRPC5, E isomer, 50 nM EA).

Broadly, the IC50 is the concentration that inhibits the measured activity by half.
